From the supplement of paper PMC6965134
± gives the standard deviation of the averaged measurements.

Test: TIMS collisional cross section (CCS, N2) of the lipid ion; higher = larger ion cross section
Settings: ionization mode: positive, one isomer drawn
Procedure: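 Lipid extracts of human plasma (NIST SRM 1950), mouse liver and HeLa cells were separated by nanoflow C18 LC (30 min gradient, 60 °C) and analysed by TIMS-PASEF on a timsTOF Pro in positive ion mode. Ion mobility was calibrated with the Agilent tuning mix and converted to collisional cross sections (Mason–Schamp) in N2 drift gas. Lipids were identified by MS/MS (SimLipid) and manual curation. SMILES are LIPID MAPS representative structures for the annotated lipid.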

Row | SMILES | TIMS collisional cross section (sample type: HeLa) [Å²] | TIMS collisional cross section (sample type: plasma) [Å²] | TIMS collisional cross section (sample type: Liver) [Å²]
1 | CCCCCCCCCCCCC/C=C/C=C/C(=O)OC[C@@H](O)COP(=O)([O-])OCC[N+](C)(C)C (ion (formula + adduct): [C26H50NO7P+H] 1+) | 228.2 | 228.1 ± 0.42 | –
2 | CC(C)CCC[C@@H](C)[C@H]1CC[C@H]2C3=CC[C@H]4[C@](C)(C=O)[C@@H](O)CC[C@]4(C)[C@H]3CC[C@]12C (ion (formula + adduct): [C29H48O2+H] 1+) | – | 219.5 | –
3 | CC(C)CCC[C@@H](C)[C@H]1CC[C@H]2[C@@H]3C(=O)C=C4C=CCC[C@]4(C)[C@H]3CC[C@]12C [3,5-cholestadien-7-one] (ion (formula + adduct): [C27H42O+H] 1+) | 203.63 ± 0.75 | 203.1 | –
4 | [C@]12(CC=C3C[C@@H](O)CC[C@]3(C)[C@@]1([H])CC[C@]1(C)[C@@]([H])([C@@](C)([H])CC[C@@H]3O[C@@]3(C)C)CC[C@@]21[H])[H] [24,25-epoxy-cholesterol] (ion (formula + adduct): [C27H44O2+H] 1+) | 210.4 | 210.5 | 209.6
5 | CC(C)C(=O)C[C@](C)(O)[C@H]1CC[C@H]2[C@@H]3C[C@H](O)[C@H]4C[C@@H](O)CC[C@]4(C)C3=CC[C@@]21C [24-northornasterol A] (ion (formula + adduct): [C26H42O4+H] 1+) | – | 207.8 | –
6 | C12CC[C@@]3([H])C(C)(C)[C@@H](O)CC[C@]3(C)C=1CC[C@]1(C)[C@@]([H])([C@@](C)([H])CC/C=C(\C)/C)CC[C@@]21C=O [32-oxolanosterol] (ion (formula + adduct): [C30H48O2+H] 1+) | 211.6 | – | –
7 | CCCCCCCCCCCCC/C=C/[C@@H](O)[C@H](CO)NC(=O)CCCCCCCCCCCCCCCCCCCCC [Cer d18:1_22:0@] (ion (formula + adduct): [C40H79NO3+H] 1+) | 274.3 | – | 274.9
8 | CCCCCCCCCCCCC/C=C/[C@@H](O)[C@H](CO)NC(=O)CCCCCCCCCCCCCCCCCCCCCC [Cer d18:1_23:0@] (ion (formula + adduct): [C41H81NO3+H] 1+) | 276.9 | – | 277.5
9 | CCCCCCCCCCCCC/C=C/[C@@H](O)[C@H](CO)NC(=O)CCCCCCCCCCCCCCCCCCCCCCC [Cer d18:1_24:0@] (ion (formula + adduct): [C42H83NO3+H] 1+) | – | 281.1 | 281.2
10 | CCCCCCCC/C=C\CCCCCCCCCCCCCC(=O)N[C@@H](CO)[C@H](O)/C=C/CCCCCCCCCCCCC [Cer d18:1_24:1@] (ion (formula + adduct): [C42H81NO3+H] 1+) | 278.2 | 280.9 ± 3.8 | 283
11 | CCCCCCCCCCCCC/C=C/[C@@H](O)[C@H](CO)NC(=O)CCCCCCCCCCCCCCCCCCCCCCCC [Cer d18:1_25:0@] (ion (formula + adduct): [C43H85NO3+H] 1+) | – | – | 284.1
12 | CCCCCCCC/C=C\CCCCCCCCCCCCCCCC(=O)N[C@@H](CO)[C@H](O)/C=C/CCCCCCCCCCCCC [Cer d18:1_26:1@] (ion (formula + adduct): [C44H85NO3+H] 1+) | 284.9 | – | 289.4
13 | CC(C)CCC[C@@H](C)[C@H]1CC[C@H]2[C@@H]3CC=C4C[C@@H](O)CC[C@]4(C)[C@H]3CC[C@]12C [Cholesterol] (ion (formula + adduct): [C27H46O+H] 1+) | 207.1 | – | –
14 | CC(C)(O)CCC(=O)[C@](C)(O)[C@H]1[C@H](O)C[C@@]2(C)[C@@H]3CC=C4[C@@H](C[C@@H](O)[C@@H](O)C4(C)C)[C@]3(C)C(=O)C[C@]12C [Cucurbitacin P] (ion (formula + adduct): [C30H48O7+H] 1+) | – | – | 231.3
15 | CCCCCCCCCCCCCCCC(=O)O[C@@H](CO)COC(=O)CCCCCCCCCCCCC [DG 14:0_16:0_0:0] (ion (formula + adduct): [C33H64O5+NH4] 1+) | 252.4 | – | 252.7
16 | CCCCCC/C=C\CCCCCCCC(=O)O[C@@H](CO)COC(=O)CCCCCCCCCCCCC [DG 14:0_16:1_0:0] (ion (formula + adduct): [C33H62O5+NH4] 1+) | 248.3 | – | –
17 | CCCCCCCC/C=C\CCCCCCCC(=O)O[C@@H](CO)COC(=O)CCCCCCCCCCCCC [DG 14:0_18:1_0:0] (ion (formula + adduct): [C35H66O5+NH4] 1+) | – | 255.9 | –

Row | SMILES | TIMS collisional cross section (sample type: HeLa) [Å²] | TIMS collisional cross section (sample type: plasma) [Å²] | TIMS collisional cross section (sample type: Liver) [Å²]
18 | CCCCC/C=C\C/C=C\CCCCCCCC(=O)O[C@@H](CO)COC(=O)CCCCCCCCCCCCC [DG 14:0_18:2_0:0] (ion (formula + adduct): [C35H64O5+NH4] 1+) | – | – | 252
19 | CCCCCCCCCCCCCCCC(=O)OCC(CO)OC(=O)CCCCCCCCCCCCCCC (centres undefined) [DG 16:0_16:0_0:0] (ion (formula + adduct): [C35H68O5+NH4] 1+) | 259 | 259 ± 0.42 | 258.8
20 | CCCCCCCCCCCCCCCC(=O)OCC(CO)OC(=O)CCCCCCCCCCCCCCC (centres undefined) [DG 16:0_16:0_0:0] (ion (formula + adduct): [C35H68O5+Na] 1+) | – | 253.8 | –
21 | CCCCCC/C=C\CCCCCCCC(=O)O[C@@H](CO)COC(=O)CCCCCCCCCCCCCCC [DG 16:0_16:1_0:0] (ion (formula + adduct): [C35H66O5+NH4] 1+) | 254.9 | 257 | 254.9
22 | CCCCCCCCCCCCCCCCC(=O)O[C@@H](CO)COC(=O)CCCCCCCCCCCCCCC [DG 16:0_17:0_0:0] (ion (formula + adduct): [C36H70O5+NH4] 1+) | 262.1 ± 0.42 | – | –
23 | CCCCC/C=C\C/C=C\CCCCCCCC(=O)O[C@@H](CO)COC(=O)CCCCCCCCCCCCCCC [DG 16:0_18:2_0:0] (ion (formula + adduct): [C37H68O5+NH4] 1+) | – | – | 259.8
24 | CC/C=C\C/C=C\C/C=C\CCCCCCCC(=O)O[C@@H](CO)COC(=O)CCCCCCCCCCCCCCC [DG 16:0_18:3_0:0] (ion (formula + adduct): [C37H66O5+NH4] 1+) | 257.3 | – | 257.1
25 | CCCCC/C=C\C/C=C\C/C=C\CCCCCCC(=O)O[C@@H](CO)COC(=O)CCCCCCCCCCCCCCC [DG 16:0_20:3_0:0] (ion (formula + adduct): [C39H70O5+H] 1+) | – | – | 265.1
26 | CCCCC/C=C\C/C=C\C/C=C\CCCCCCC(=O)O[C@@H](CO)COC(=O)CCCCCCCCCCCCCCC [DG 16:0_20:3_0:0] (ion (formula + adduct): [C39H70O5+NH4] 1+) | 264.8 | – | 264.9
27 | CCCCC/C=C\C/C=C\C/C=C\C/C=C\CCCC(=O)O[C@@H](CO)COC(=O)CCCCCCCCCCCCCCC [DG 16:0_20:4_0:0] (ion (formula + adduct): [C39H68O5+H] 1+) | – | – | 263.9
28 | CCCCC/C=C\C/C=C\C/C=C\C/C=C\CCCC(=O)O[C@@H](CO)COC(=O)CCCCCCCCCCCCCCC [DG 16:0_20:4_0:0] (ion (formula + adduct): [C39H68O5+NH4] 1+) | 263.4 | 263.6 | 263.8
29 | CC/C=C\C/C=C\C/C=C\C/C=C\C/C=C\CCCC(=O)O[C@@H](CO)COC(=O)CCCCCCCCCCCCCCC [DG 16:0_20:5_0:0] (ion (formula + adduct): [C39H66O5+NH4] 1+) | 261.5 | – | –
30 | CCCCCCCCCCCCCCCCCCCCCC(=O)O[C@@H](CO)COC(=O)CCCCCCCCCCCCCCC [DG 16:0_22:0_0:0] (ion (formula + adduct): [C41H80O5+NH4] 1+) | 279.1 | – | –
31 | CCCCCCCC/C=C\CCCCCCCCCCCC(=O)O[C@@H](CO)COC(=O)CCCCCCCCCCCCCCC [DG 16:0_22:1_0:0] (ion (formula + adduct): [C41H78O5+NH4] 1+) | 276.3 | – | –
32 | CCCCC/C=C\C/C=C\C/C=C\C/C=C\CCCCCC(=O)O[C@@H](CO)COC(=O)CCCCCCCCCCCCCCC [DG 16:0_22:4_0:0] (ion (formula + adduct): [C41H72O5+NH4] 1+) | 271.2 | – | 270.8
33 | CC/C=C\C/C=C\C/C=C\C/C=C\C/C=C\CCCCCC(=O)O[C@@H](CO)COC(=O)CCCCCCCCCCCCCCC [DG 16:0_22:5_0:0] (ion (formula + adduct): [C41H70O5+NH4] 1+) | 266.6 | – | 270
